Earlier results as cited in publication PMC6344942 (SLAS discovery : advancing life sciences R & D, 2017).
Like-named read-outs stand apart in the source and are kept apart here.

Target: Ubc9 (Homo sapiens, UniProt P63279)
Sequence (P63279 whole entry): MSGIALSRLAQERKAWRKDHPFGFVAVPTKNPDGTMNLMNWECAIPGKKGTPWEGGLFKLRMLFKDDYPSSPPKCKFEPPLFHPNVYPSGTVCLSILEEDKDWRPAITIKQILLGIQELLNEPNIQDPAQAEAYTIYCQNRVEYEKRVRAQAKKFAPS

Row | SMILES | IC50 (Ubc9 inhibitor) [µM] | IC50 (prevents transfer of SUMO from Ubc9~SUMO thioester to substrate) [µM]
1 | COC(=CC(=O)O)C1c2cc3ccc(-c4ccc5cc6c(c(O)c5c4O)C(=O)CC(C)(O)C6C(=CC(=O)O)OC)c(O)c3c(O)c2C(=O)CC1(C)O (centres unmarked) [spectomycin B1] | 4.4 | 
2 | O=c1cc(-c2ccc(O)c(O)c2O)oc2ccccc12 [Compound 2-D08, 2-D08] |  | 6
